Reference: US8519110B2, “mRNA cap analogs” (Board of Supervisors of Louisiana State University And …, priority 2008, dated 2013)

How the values were obtained:
[1] = tested on: rabbit reticulocyte lysate system; experiment: In vitro translation efficiency of capped luciferase mRNA, method I transcripts; format: biochemical; conditions: for Translation efficiency in comparison with m^7GpppG-LUC mRNA, Experiment No. 1: experiment 1; for Translation efficiency in comparison with m^7GpppG-LUC mRNA, Experiment No. 2: experiment 2; for Translation efficiency in comparison with m^7GpppG-LUC mRNA, Experiment No. 3: experiment 3; for Translation efficiency in comparison with m^7GpppG-LUC mRNA, Mean: mean of experiments
Procedure: A DNA template for in vitro transcription was synthesized by PCR from the plasmid SP6p-5′UTR β-globin-LUCiferase. The template contained the SP6 promoter followed by the 5′-UTR sequence of rabbit β-globin mRNA and the entire firefly luciferase mRNA coding region. A typical in vitro transcription reaction mixture (50 μl) contained SP6 transcription buffer (Fermentas, cat. no. EP0131), 2 μg of DNA template, 2 U/μl RiboLock Ribonuclease Inhibitor (Fermentas), 2 mM each of ATP, CTP, and UTP, 0.1 mM GTP, and 1 mM dinucleotide cap analog. The reaction mixture was incubated at 37° C. for 5 min before the addition of SP6 RNA polymerase (Fermentas) to a final concentration of 2 U/μl. After 30 min of incubation at 37° C., GTP was added to a final concentration of 1 mM, and the reaction continued for an additional 90 min. The reaction mixtures were then treated with 1 U of DNase RQ1 (RNAse-free, Promega) per μg of template DNA in transcription buffer at 37° C. for 20 min. RNA transcripts were purified on DEPC-treated Sephadex G-50 spin columns (Pharmacia). The integrity of transcripts was confirmed by electrophoresis on a non-denaturating, 1% agarose gel. Concentrations were determined spectrophotometrically. The transcripts were stored at −80° C. until used.
(§1) A micrococcal nuclease-treated rabbit reticulocyte lysate system (Flexi Rabbit Reticulocyte Lysate System, Promega) was used for in vitro translation. Translation reactions were performed in 10 μl for 60 min at 30° C. A typical reaction mixture contained 40% reticulocyte lysate, the 20 “standard” amino acids (0.01 mM each), MgCl2 (1.2 mM), potassium acetate (170 mM), and mRNA (five different concentrations of each transcript, ranging from 0.25 to 4 μg/ml). Luciferase activity was measured in a luminometer (Glomax, Promega). Linear regression was used to fit the data points (luciferase activity versus concentration of mRNA transcript), and translational efficiency was defined as the slope of this line. The relative translational efficiencies of the test mRNAs were compared to that of m^7GpppG-capped luciferase mRNA, the latter being defined as 1.0.

Human DcpS = target: T1, Human DcpS (Homo sapiens, UniProt Q96C86); experiment: Assay of susceptibility to DcpS (RP HPLC); format: biochemical
T1 construct: made in house; host or cells: Escherichia coli
T1 sequence (Q96C86 1-337): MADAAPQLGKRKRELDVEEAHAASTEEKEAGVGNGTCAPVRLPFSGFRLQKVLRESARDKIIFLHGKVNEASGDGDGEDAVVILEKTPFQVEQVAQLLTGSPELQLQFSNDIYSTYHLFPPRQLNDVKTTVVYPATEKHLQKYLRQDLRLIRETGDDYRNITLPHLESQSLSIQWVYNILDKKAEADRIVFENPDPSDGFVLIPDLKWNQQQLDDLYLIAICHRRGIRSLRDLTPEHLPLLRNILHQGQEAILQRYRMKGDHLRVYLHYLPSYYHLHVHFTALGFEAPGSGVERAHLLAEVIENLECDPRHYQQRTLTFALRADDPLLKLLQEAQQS
Procedure: Human DcpS was expressed in Escherichia coli as described in L. Cohen et al., “Nematode m^7GpppG and m3^2,2,7GpppG decapping: activities in Ascaris embryos and characterization of C. elegans scavenger DcpS,” RNA, vol. 10, pp. 1609-1624 (2004). A 15 μM solution of the protein in 20 mM Tris buffer, pH 7.5, containing 50 mM KCl, 0.2 mM EDTA, 1 mM DTT, 0.5 mM PMSF, and 20% glycerol was stored at −80° C. until used. Enzymatic reactions were carried out at 30° C. in 500 μl of 50 mM Tris-HCl, pH 7.9, containing 20 mM MgCl2 and 60 mM (NH4)2SO4. A 40 μM solution of the selected cap analog was treated with 5.0 μl of DcpS for 120 min. At times of 10, 30, 60, and 120 min, a 100-μl sample was collected from the reaction mixture and deactivated by incubation at 90° C. for 2 min. Samples were analyzed without further treatment by analytical RP HPLC with a linear gradient of methanol in 0.1 M KH2PO4, pH 6.0, from 0-50% over 15 min.

eIF4E = eIF4E (Mus musculus, UniProt P63073); experiment: Binding affinity of cap analogs to eIF4E by fluorescence titration; conditions: equilibrium association constant; for Cap analog/eIF4E affinity (KAS): 20 °C, pH 7.2, ionic strength 150 mM
Procedure: Fluorescence titration measurements were carried out on an LS-50B or LS-55 spectrofluorometer (Perkin Elmer Co.) at 20.0±0.2° C. in 50 mM HEPES/KOH (pH 7.2), 0.5 mM EDTA, and 1 mM DTT, with ionic strength adjusted to 150 mM by addition of KCl. Various cap analogue solutions, of increasing concentration, were added in 1 μl aliquots to 1.4 ml of 0.1 or 0.2 μM protein solutions. Fluorescence intensities were measured with excitation at 280 nm or 295 nm with 2.2 nm bandwidth, and detection at 337 nm with 4 nm bandwidth and a 290-nm cut-off filter. The data were corrected for sample dilution and inner filter effects. Equilibrium association constants (Kas) were determined by fitting the theoretical dependence of fluorescence intensity on cap analog concentration to the experimental data, as otherwise described in A. Niedźwiecka et al., “Biophysical studies of eIF4E cap-binding protein: recognition of mRNA 5′ cap structure and synthetic fragments of eIF4G and 4E-BP1 proteins,” J. Mol. Biol., vol. 312, pp. 615-635 (2002). The concentration of protein was allowed to be a free parameter in the equilibrium equation, to determine the amount of “active” protein. The final Kas was calculated as a weighted average of three to ten independent titrations, with the weights taken as the reciprocals of the squares of the numerical standard deviations. Numerical nonlinear least-square regression analysis was performed using ORGIN 6.0 (Microcal Software Inc., USA).
The binding affinities of eukaryotic eIF4E for various cap analogs were determined by fluorescence quenching. This biophysical test allows one to predict the potential efficacy of cap analogs in translation. Those having higher affinities for eIF4E than the unmodified cap analog (m^7GpppG) are expected to be better recognized by the translational machinery, leading to higher translational efficiencies. They also are expected to compete more effectively with unmodified mRNA when free cap dinucleotides are used to inhibit translation. See generally E. Grudzien-Nogalska et al., “Synthesis of anti-reverse cap analogs (ARCAs) and their applications in mRNA translation and stability,” Methods Enzymol., vol. 431, pp. 203-227 (2007).

[2] = tested on: rabbit reticulocyte lysate system; experiment: In vitro translation efficiency of capped luciferase mRNA with 31-base poly(A) tail, method II transcripts; format: biochemical; conditions: for Translation efficiency in comparison to m^7GpppG-LUC-(A)31 mRNA, Experiment No. 4: experiment 4; for Translation efficiency in comparison to m^7GpppG-LUC-(A)31 mRNA, Experiment No. 5: experiment 5; for Translation efficiency in comparison to m^7GpppG-LUC-(A)31 mRNA, Mean: mean of experiments
Procedure: Capped, polyadenylated luciferase mRNAs were synthesized in vitro by PCR from a dsDNA template that contained the SP6 promoter, the 5′-UTR sequence of rabbit β-globin mRNA, the entire firefly luciferase coding region, and 31 adenosine residues. A typical transcription reaction mixture (40 μl) contained SP6 transcription buffer (Fermentas), 0.7 ug of DNA template, 1 U/μl RiboLock Ribonuclease Inhibitor (Fermentas), 0.5 mM each of ATP, CTP, and UTP, 0.1 mM GTP, and 0.5 mM dinucleotide cap analog. The reaction mixture was incubated at 37° C. for 5 min before addition of SP6 RNA polymerase (Fermentas) to a final concentration of 1 U/μl, and incubation then continued for 45 min at 37° C. The reaction mixture was treated with DNase as in Method I. RNA transcripts were purified with NucAway Spin Columns (Ambion). The integrity of transcripts and quantitation was performed as in Method I.
as §1

[3] = 40 μM cap analog, 30° C., up to 120 min

Chain of eIF4E (P63073 28-217 limits assumed): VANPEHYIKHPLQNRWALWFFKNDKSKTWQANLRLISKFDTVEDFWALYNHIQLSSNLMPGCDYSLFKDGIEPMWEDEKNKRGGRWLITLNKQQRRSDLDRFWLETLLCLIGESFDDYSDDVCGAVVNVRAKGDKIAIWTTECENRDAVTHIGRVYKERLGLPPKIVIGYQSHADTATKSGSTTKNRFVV

SMILES	Susceptibility to DcpS (Human DcpS; [3])	Cap analog/eIF4E affinity (KAS) (eIF4E) [μM^−1]	Susceptibility to DcpS (Human DcpS; Table 3)	Translation efficiency in comparison to m^7GpppG-LUC-(A)31 mRNA, Experiment No. 4 [2]	Translation efficiency in comparison to m^7GpppG-LUC-(A)31 mRNA, Experiment No. 5 [2]	Translation efficiency in comparison to m^7GpppG-LUC-(A)31 mRNA, Mean [2]	other results
[BH3-]P(=O)(OP(=O)(O)OCC1OC(n2cnc3c(=O)[nH]c(N)nc32)C(O)C1O)OP(=O)(O)OCC1OC(n2c[n+](C)c3c(=O)[nH]c(N)nc32)C(O)C1O (mixture of isomers) [m^7GppBH3pG]	–	–	–	–	–	–	Translation efficiency in comparison with m^7GpppG-LUC mRNA, Experiment No. 1 [1]: 1.66; Translation efficiency in comparison with m^7GpppG-LUC mRNA, Experiment No. 2 [1]: 1.42; Translation efficiency in comparison with m^7GpppG-LUC mRNA, Experiment No. 3 [1]: 1.14; Translation efficiency in comparison with m^7GpppG-LUC mRNA, Mean [1]: 1.41; In vitro translational efficiency, method I ([1]; relative to m^7GpppG-capped luciferase mRNA = 1.0): 1.41 ± 0.26
[BH3-]P(=O)(OP(=O)(O)OCC1OC(n2cnc3c(=O)[nH]c(N)nc32)C(O)C1O)OP(=O)(O)OCC1OC(n2c[n+](C)c3c(=O)[nH]c(N)nc32)C(OC)C1O (single isomer, unassigned) [m2^7,2′-OGppBH3pG (D1), m2^7,2′-OGppBH3pG]	resistant	39.4 ± 1.2	–	1.87	3.44	2.66	–
CO[C@@H]1[C@H](O)[C@@H](COP(=O)([O-])OP(O)(=S)OP(=O)(O)OC[C@H]2O[C@@H](n3cnc4c(=O)[nH]c(N)nc43)[C@H](O)[C@@H]2O)O[C@H]1[n+]1cn(C)c2c(=O)[nH]c(N)nc21 (single isomer, unassigned) [m2^7,2′-OGppSpG (D1), m2^7,2′-OGppSpG, reference compound]	–	–	–	2.92	2.83	2.88	–
CO[C@@H]1[C@H](O)[C@@H](COP(=O)([O-])OP(O)(=S)OP(=O)(O)OC[C@H]2O[C@@H](n3cnc4c(=O)[nH]c(N)nc43)[C@H](O)[C@@H]2O)O[C@H]1[n+]1cn(C)c2c(=O)[nH]c(N)nc21 (single isomer, unassigned) [m2^7,2′-OGppSpG (D2), m2^7,2′-OGppSpG, reference compound]	–	–	–	3.20	3.02	3.11	–
Nc1nc2c(ncn2[C@@H]2O[C@H](COP(=O)(O)OP(=O)(O)OP(=O)(O)OC[C@H]3O[C@@H](n4cnc5c(N)ncnc54)[C@H](O)[C@@H]3O)[C@@H](O)[C@H]2O)c(=O)[nH]1 [ApppG, reference compound]	–	–	–	0.19	0.18	0.19	Translation efficiency in comparison to m^7GpppG-LUC-(A)31 mRNA, Experiment No. 1 ([2]; experiment 1): 0.27; Translation efficiency in comparison to m^7GpppG-LUC-(A)31 mRNA, Experiment No. 2 ([2]; experiment 2): 0.16; Translation efficiency in comparison to m^7GpppG-LUC-(A)31 mRNA, Experiment No. 3 ([2]; experiment 3): 0.14; Translation efficiency in comparison with m^7GpppG-LUC mRNA, Experiment No. 1 [1]: 0.34; Translation efficiency in comparison with m^7GpppG-LUC mRNA, Experiment No. 2 [1]: 0.55; Translation efficiency in comparison with m^7GpppG-LUC mRNA, Experiment No. 3 [1]: 0.53; Translation efficiency in comparison with m^7GpppG-LUC mRNA, Experiment No. 4 ([1]; experiment 4): 0.48; Translation efficiency in comparison with m^7GpppG-LUC mRNA, Mean [1]: 0.48

Now from value to compound, other results behind:

Susceptibility to DcpS (Human DcpS; [3])	Cap analog/eIF4E affinity (KAS) (eIF4E) [μM^−1]	Susceptibility to DcpS (Human DcpS; Table 3)	SMILES	Translation efficiency in comparison to m^7GpppG-LUC-(A)31 mRNA, Experiment No. 4 [2]	Translation efficiency in comparison to m^7GpppG-LUC-(A)31 mRNA, Experiment No. 5 [2]	Translation efficiency in comparison to m^7GpppG-LUC-(A)31 mRNA, Mean [2]	other results
–	–	resistant	C[n+]1cn(C2OC(COP(O)(=[Se])OP(=O)([O-])OP(=O)(O)OCC3OC(n4cnc5c(=O)[nH]c(N)nc54)C(O)C3O)C(O)C2O)c2nc(N)[nH]c(=O)c21 (single isomer, unassigned) [m^7GpSeppG (D1), m^7GpSeppG]	–	–	–	–
–	–	resistant	C[n+]1cn(C2OC(COP(O)(=[Se])OP(=O)([O-])OP(=O)(O)OCC3OC(n4cnc5c(=O)[nH]c(N)nc54)C(O)C3O)C(O)C2O)c2nc(N)[nH]c(=O)c21 (single isomer, unassigned) [m^7GpSeppG (D2), m^7GpSeppG]	–	–	–	–
hydrolyzed	10.8 ± 0.3	hydrolyzed	CO[C@@H]1[C@H](O)[C@@H](COP(=O)(O)OP(=O)([O-])OP(=O)(O)OC[C@H]2O[C@@H](n3cnc4c(=O)[nH]c(N)nc43)[C@H](O)[C@@H]2O)O[C@H]1n1c[n+](C)c2c(O)nc(N)nc21 [m2^7,2′-OGpppG, reference compound]	–	–	–	Cap analog-eIF4E affinity (KAS) (eIF4E; Table 3): 10.8 ± 0.3 μM^−1
hydrolyzed	5.0 ± 0.2	–	C[n+]1cn([C@@H]2O[C@H](COP(=O)(O)OP(=O)(O)OP(=O)(O)OC[C@H]3O[C@@H](n4c[n+](C)c5c(=O)[nH]c(N)nc54)[C@H](O)[C@@H]3O)[C@@H](O)[C@H]2O)c2nc(N)[nH]c(=O)c21 [m^7Gpppm^7G, reference compound]	–	–	–	–
